The text below walks through data of patent US9095535B2, “GABA release-regulating agent in cerebellum” (KOREA INSTITUTE OF SCIENCE AND TECHNOLOGY, priority 2009, dated 2015).

Test [1] has as its target T1, hBest1 (Homo sapiens, UniProt O76090).
T1 sequence (O76090 1-585): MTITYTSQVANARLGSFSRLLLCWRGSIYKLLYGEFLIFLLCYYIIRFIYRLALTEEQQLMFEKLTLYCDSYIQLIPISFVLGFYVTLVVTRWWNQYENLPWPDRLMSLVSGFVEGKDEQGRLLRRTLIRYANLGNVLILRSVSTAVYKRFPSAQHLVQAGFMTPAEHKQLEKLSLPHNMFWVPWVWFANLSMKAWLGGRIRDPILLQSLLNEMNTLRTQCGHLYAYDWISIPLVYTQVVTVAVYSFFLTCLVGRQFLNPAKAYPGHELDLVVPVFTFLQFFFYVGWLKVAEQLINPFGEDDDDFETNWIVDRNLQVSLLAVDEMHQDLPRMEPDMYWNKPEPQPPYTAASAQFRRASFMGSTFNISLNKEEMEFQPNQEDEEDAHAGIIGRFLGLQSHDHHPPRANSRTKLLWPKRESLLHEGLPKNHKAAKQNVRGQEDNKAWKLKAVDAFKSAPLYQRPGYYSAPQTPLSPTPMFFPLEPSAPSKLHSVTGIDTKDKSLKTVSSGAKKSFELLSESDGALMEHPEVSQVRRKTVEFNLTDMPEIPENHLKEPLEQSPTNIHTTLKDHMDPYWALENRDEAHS
The settings on record: cited from earlier work.

Test [2] relates to GABAA receptor. Put plainly: GABA-induced whole cell current in cerebellar granule cells. The settings on record: NPPB application 2 and 5 min; wild B6 mouse granule cells. Format: cell-based. The protocol: For puffing experiment, glass electrode (5-6 MΩ) filled with […] was positioned near to the patched granular cell and puffed briefly for 500 ms by Picospritzer III (Parker instrumentation) connected with MiniDigi (Molecular Device).
The magnitudes of GABA induced current with the NPPB application (2 and 5 min) are also shown.

For test [3], the system named is cerebellar granule cells. Put plainly: Clomeleon imaging of [Cl−]i in cerebellar granule cells (tonic GABA release). The settings on record: bath application of 10 μM. The class given is cell-based, mouse. The protocol: B6 wildtype, GFAP-GFP and hGFAP-CreERT2 trangenic mice (SPF room, Center for Neural Science, KIST, Seoul, Korea) were anaesthetized by intraperitoneal injection of 2% avertin (20 μl/g, sigma) and placed in a stereotaxic frame (David Kopf instrument). pSicoR-b1shRNA-mCherry or scrambled virus (Macrogen) was stereo-injected into cerebellar cortex at a rate of 0.2 μl/min (total 2 μl) using syringe pump (Harvard apparatus) and 25 μl syringe (Hamilton company). The coordination of injection site was 1.7 mm from the lambda and the depth was 1.5-1.7 mm from the skull. […]
Clomeleon, based on fluorescence resonance energy transfer (FRET), is a genetically-encoded fluorescent indicator for Cl^− in which chloride-sensitive yellow fluroscent protein fused with chloride-insensitive cyan fluorescent protein via a flexible peptide linker (Kuner and Augustine, 2000). […]
For imaging, two ROIs (Regions of Interest) covering the granule cell layer and the molecular layer were drawn. […] Fluorescence excitation was produced by two consecutive 200 to 500 ms long light pulses at 0.5 Hz and fluorescence emission was alternately collected at each wavelength with a back-illuminated, cooled CCD camera with the on-chip multiplication gain control (Cascade 512B, Photometrics). […]

Test [4] deals with cerebellar granule cells. The experiment in a line: Whole-cell patch clamp of tonic GABA current in cerebellar granule cells. Format: cell-based, mouse. The protocol:
Brain slices were prepared as described in Rossi et al., 2003. For slice recording, either approximately P28 days old or more than 8 weeks old mice were used. Animals were deeply anesthetized with halothane. After decapitation, the brain was quickly excised from the skull and submerged in ice-cold cutting solution (in mM): 250 Sucrose, 26 NaHCO3, 10 D(+)-Glucose, 4 MgCl2, 3 myo-inositol, 2.5 KCl, 2 Sodium pyruvate, 1.25 NaH2PO4, 0.5 Ascorbic acid 0.1 CaCl2, 1 Kynurenic acid, pH 7.4. All solutions were gas-treated with 95% O2-5% CO2. After trimming both sides of vermis, several parasagittal slices with […] thicknesses containing cerebellar lobes were cut using a microtome (Leica VT 1000) and transferred to extracellular ACSF solution (in mM); 126 NaCl, 24 NaHCO3, 1 NaH2PO4, 2.5 KCl, 2.5 CaCl2, 2 MgCl2, 10 D(+)-Glucose, pH 7.4. Slices were incubated for one hour at least at room temperature.
For recording, slices were transferred to an electrophysiological recording chamber (RC-26G, Warner Instruments) which is continuously superfused with ASCF (artificial cerebrospinal fluid, sigma) solution (flow rate; 2 ml/min) and controlled by flower controller (Synaptosoft) and a vacuum pump (Charles Austen, model Capex 8C). Slice chamber was mounted on the stage of an upright microscope (Olympus, Japan) and viewed with an ×60 water immersion objective with differential interference contrast and infrared optics. Cellular morphologies were visually identified by Imaging Workbench 6.0 (INDEC Systems, Inc), camera controller (Hamamatsu, C4742-95), and light microscope controller (Olympus, TH4-200). Fluorescence images were viewed with mercury lamp (Olympus, U-RFL-T). Whole cell voltage-clamp recording was made from granular cell somata or Bergmann glial cells mostly located in 2-5 cerebellar lobules
Pipette resistance for granule cells was typically 10-12 MΩ and pipette was filled with an internal solution containing (in mM) 135 CsCl, 4 NaCl, 0.5 CaCl2, 10 HEPES, 5 EGTA, 2 Mg-ATP, 0.5 Na2-GTP, 10 QX-314, pH adjusted to 7.2 with CsOH (278-285 mOsmol) was used (Rossi, et al., 2003).
B6 wildtype, GFAP-GFP and hGFAP-CreERT2 trangenic mice (SPF room, Center for Neural Science, KIST, Seoul, Korea) were anaesthetized by intraperitoneal injection of 2% avertin (20 μl/g, sigma) and placed in a stereotaxic frame (David Kopf instrument). pSicoR-b1shRNA-mCherry or scrambled virus (Macrogen) was stereo-injected into cerebellar cortex at a rate of 0.2 μl/min (total 2 μl) using syringe pump (Harvard apparatus) and 25 μl syringe (Hamilton company). The coordination of injection site was 1.7 mm from the lambda and the depth was 1.5-1.7 mm from the skull.
The glia-specific CreERT activation was initiated by intraperitoneal injection of tamoxifen for 5 days prior to lentivirus injection (FIG. 4a,b). […] Tamoxifen or sunflower oil were injected intraperitoncally once a day for 5 days before lentivirus injection.

As to `O=C(O)c1cc([N+](=O)[O-])ccc1NCCCc1ccccc1` [NPPB, 5-nitro-2(3-phenylpropylamino)-benzoic acid], the “block of hBest1 Cl− channel” value in test [1] is reported as “readily blocked”. Also, in test [2], the “GABA-induced whole cell current” value is given as “did not have any effect”. The “[Cl−]i in granular cell bodies and parallel fibers” value in test [3] is “decreased”. In addition, the “NPPB sensitive and Best1-mediated tonic GABA release as share of total GABAzine-sensitive current” value in test [4] was “about 70%”. Also, in test [4] (bath application of 50 μM NPPB, 8 wks B6 mice), the “Tonic GABA current” value is on record as “reduced”. Also, the “NPPB-sensitive component of tonic GABA current” value in test [4] (naive mice, 50 μM NPPB) came to 18.95±2.47 pA.
